Test results published in patent US20150258202A1, “ANTHOCYANIDIN COMPLEX FOR THE TREATMENT OF MULTIPLE MYELOMA” (priority 2012, published 2015).

Assays:
[1] = Solubility of delphinidin chloride in aqueous cyclodextrin solutions (complexing); type: physicochemical; conditions: pure water, cyclodextrin concentration 0; stirred 30° C. 20 h in the dark, filtered 0.22 μm
Experimental: A reversed-phase HPLC method was used to determine the delphinidin chloride content in the delphinidin-containing compositions.
In this example, the complexing of delphinidin by various cyclodextrins and the solubility of the complex in aqueous solution are investigated.
Neutral aqueous solutions were prepared comprising 10% by weight of the respective cyclodextrin.
Glass flasks were filled with 5 ml each of aqueous cyclodextrin solution and pure water. An excess of delphinidin chloride was then added.
The suspensions were stirred at 30° C. for 20 h in the dark. The suspension was then filtered through a membrane filter of 0.22 μm pore size.

[2] = Stability trials in aqueous solution (0.9% NaCl, 37° C., delphinidin content by HPLC); type: physicochemical; conditions: 0.9% NaCl solution, dark
Experimental: To determine the delphinidin chloride content in the delphinidin-containing solutions, a reversed-phase HPLC method was used similar to the one already described above. The following reagents were used in this case:
The solutions were prepared at room temperature and subsequently stored in the dark at 37° C. in closed vials.
The delphinidin content was determined after 1, 2, 3 and 4 h. The table below gives the content determined as a percentage of the starting concentration stated above.
The determination of the delphinidin content in the samples was calculated with the aid of the Agilent ChemStation software using the calibration with the external standard described.

[3] = test system: mouse myeloma cell line MOPC-315; assay: FACS analysis of dead cells stained with propidium iodide; type: cell-based; conditions: summary of BLI measurement and FACS analysis
From the text: 1. Test Line and Experimental Setup • In the in vitro experiments, the effect of the delphinidin+sulfobutyl ether β-cyclodextrin complex (delphinidin+SBEBCD below) and delphinidin on the mouse myeloma cell line MOPC-315 (ATTC catalog no. TIB-23) was investigated by BLI (=bioluminescence imaging) measurement and FACS (fluorescence activated cell sorting) analysis described below. The methods used (BLI measurement and FACS analysis) are known to those skilled in the art from patent and technical literature, for example, from the FACS-based patent DE 1815352 C1.

Oc1cc(O)c2cc(O)c(-c3cc(O)c(O)c(O)c3)[o+]c2c1.[Cl-] [Delphinidin chloride]
Delphinidin chloride (solubility achievable) [1]: 70 µg/mL | Delphinidin content as a percentage of the starting concentration ([2]; 0 h): 100% | Delphinidin content as a percentage of the starting concentration ([2]; 1 h): 8.3% | Delphinidin content as a percentage of the starting concentration ([2]; 2 h): 6.5% | Delphinidin content as a percentage of the starting concentration ([2]; 3 h): 5.6% | Delphinidin content as a percentage of the starting concentration ([2]; 4 h): 5.1% | Killing of myeloma cells in vitro [3]: kill human myeloma cells in vitro | Dose dependence of cell killing ([3]; higher doses): virtually all cells are killed at higher doses
